US8664257B2, “Oxygen-substituted 3-heteroaroylamino-propionic acid derivatives and their use as pharmaceuticals” (Sanofi, priority 2010, dated 2014)

What follows are molecules tested against T1, Recombinant human cathepsin A (Homo sapiens, UniProt P10619) (assay: Cathepsin A inhibitory activity). Conditions: pharmacological test "Cathepsin A inhibitory activity"; IC50 given as class A/B/C; read-out: Activity (2): Cathepsin A inhibitory activity, IC50 class.
T1 construct: Recombinant human cathepsin A (residues 29-480, with a C-terminal 10-His tag); 10-His (C); purchased R&D Systems 1049-SE
T1 sequence (P10619 29-312 limits assumed): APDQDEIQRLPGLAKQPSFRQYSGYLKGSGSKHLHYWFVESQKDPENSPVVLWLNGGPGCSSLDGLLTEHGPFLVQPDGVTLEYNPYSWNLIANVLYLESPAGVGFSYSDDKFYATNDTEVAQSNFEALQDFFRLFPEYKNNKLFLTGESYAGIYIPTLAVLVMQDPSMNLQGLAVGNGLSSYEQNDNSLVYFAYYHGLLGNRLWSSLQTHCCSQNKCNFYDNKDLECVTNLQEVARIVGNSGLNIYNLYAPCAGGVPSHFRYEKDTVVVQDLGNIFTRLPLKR
T1 sequence (P10619 327-480 limits assumed): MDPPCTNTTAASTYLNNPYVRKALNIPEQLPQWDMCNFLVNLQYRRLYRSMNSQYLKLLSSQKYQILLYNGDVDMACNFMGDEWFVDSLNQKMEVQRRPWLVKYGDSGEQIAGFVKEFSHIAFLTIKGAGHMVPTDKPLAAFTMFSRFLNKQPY
Type: biochemical
Procedure, shortened: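 Read-out was microfluidic separation of cleaved vs. uncleaved Bodipy FL-bradykinin (2 μM), giving turnover, % inhibition and IC50. Compound and 833 ng/ml enzyme met for 15 min RT in pH 5.5 MES/DTT before substrate (15 min RT). The 29-480 His-tagged human enzyme was first activated by cathepsin L, then E-64 (10 μM).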

Compound | IC50
COc1cccc([C@H](CC(=O)O)NC(=O)c2cc(O)n(-c3ccc(F)cc3F)n2)c1 [Example 182] | 100 to 1000 nM
O=C(O)C[C@H](NC(=O)c1cc(O)n(-c2ccc(Cl)cc2)n1)c1ccccc1Br [Example 270] | 100 to 1000 nM
O=C(O)CC(NC(=O)c1cc(O)n(-c2ccccc2Cl)n1)c1ccc(OC(F)(F)F)cc1 (stereo not drawn) [Example 215] | 100 to 1000 nM
O=C(O)C[C@H](NC(=O)c1cc(O)n(-c2ccc(F)cc2F)n1)c1ccccc1Br [Example 175] | 100 to 1000 nM
O=C(O)C[C@H](NC(=O)c1cc(O)n(-c2ccccc2Cl)n1)c1cccc(Cl)c1Cl [Example 212] | < 100 nM

More lines, now with the values ahead:

IC50 | Compound
1000 to 30000 nM | O=C(O)C[C@H](NC(=O)c1cc(O)n(-c2ccccc2F)n1)c1ccc(-c2ccc(F)cc2)cc1 [Example 146]
100 to 1000 nM | N#Cc1ccc([C@H](CC(=O)O)NC(=O)c2cc(O)n(-c3ccc(F)cc3F)n2)cc1 [Example 176]
100 to 1000 nM | O=C(O)CC(NC(=O)c1cc(O)n(-c2ccc(F)cc2F)n1)c1ccc(Oc2ccccc2)cc1 (stereo not drawn) [Example 199]
100 to 1000 nM | Cc1cccc([C@H](CC(=O)O)NC(=O)c2cc(O)n(-c3cccc(Cl)c3)n2)c1 [Example 258]

Same assay, conditions: read-out: Activity (2): Cathepsin A inhibitory activity (IC50 class)

Compound | IC50
CCOc1cc(C(=O)N[C@@H](CC(=O)O)c2ccccc2C)nn1-c1ccccc1 [Example 621] | < 100 nM
COc1ccc(C(F)(F)F)cc1C(CC(=O)O)NC(=O)c1cc(O)n(-c2ccccc2)n1 (stereo not drawn) [Example 548, 3-[(5-Hydroxy-1-phenyl-1H-pyrazole-3-carbonyl)-amino]-3-(2-methoxy-5-trifluoromethyl-phenyl)-propionic acid] | 1000 to 30000 nM
CC(C)(C)[C@@H](O)COc1cc(C(=O)N[C@@H](CC(=O)O)c2ccc(Cl)cc2Cl)nn1-c1ccccc1F [Example 753, (S)-3-(2,4-Dichloro-phenyl)-3-{[1-(2-fluoro-phenyl)-5-((R)-2-hydroxy-3,3-dimethyl-butoxy)-1H-pyrazole-3-carbonyl]-amino}-propionic acid] | < 100 nM
O=C(O)CC(NC(=O)c1cc(O)n(-c2ccccc2)n1)c1ccc(-n2cccn2)cc1 (stereo not drawn) [Example 578] | 1000 to 30000 nM
Cc1ccccc1[C@H](CC(=O)O)NC(=O)c1cc(O)n(-c2cccc(Cl)c2F)n1 [Example 589] | 100 to 1000 nM
O=C(O)CC(NC(=O)c1cc(O)n(-c2cccc(Cl)c2F)n1)c1ccc(-c2ccc(F)cc2)cc1 (stereo not drawn) [Example 590] | 100 to 1000 nM
CS(=O)(=O)c1ccc(C(CC(=O)O)NC(=O)c2cc(O)n(-c3ccccc3)n2)cc1 (stereo not drawn) [Example 600] | 1000 to 30000 nM
O=C(O)CC(NC(=O)c1cc(O)n(-c2ccccc2Cl)n1)c1ccc(-c2ccccc2F)cc1 (stereo not drawn) [Example 585, 3-{[1-(2-Chloro-phenyl)-5-hydroxy-1H-pyrazole-3-carbonyl]-amino}-3-(2′-fluoro-biphenyl-4-yl)-propionic acid] | 100 to 1000 nM

The next lines start with the values.

IC50 | Compound
< 100 nM | CCOc1cc(C(=O)N[C@@H](CC(=O)O)c2cccc(Cl)c2Cl)nn1-c1ccccc1F [Example 722]
< 100 nM | CCOc1cc(C(=O)NC(CC(=O)O)c2ccc(OC)cc2Cl)nn1-c1ccccc1F (stereo not drawn) [Example 724]
< 100 nM | CC(C)[C@@](C)(O)COc1cc(C(=O)N[C@@H](CC(=O)O)c2cccc(Cl)c2)nn1-c1ccccc1F [Example 767]
< 100 nM | Cc1ccccc1[C@H](CC(=O)O)NC(=O)c1cc(OCc2c(F)cccc2F)n(-c2ccccc2F)n1 [Example 644]
< 100 nM | COc1cc(C(=O)N[C@@H](CC(=O)O)c2ccc(C(F)(F)F)cc2)nn1-c1ccccc1F [Example 674]
< 100 nM | Cc1ccccc1[C@H](CC(=O)O)NC(=O)c1cc(OCC2CCOCC2)n(-c2ccccc2F)n1 [Example 627]

Same assay, conditions: read-out: Activity (2): Cathepsin A inhibitory activity, IC50 class

Compound | IC50
Cc1ccccc1[C@H](CC(=O)O)NC(=O)c1cc(O)n(-c2ccccc2Cl)n1 [Example 77] | < 100 nM
O=C(O)CC(NC(=O)c1cc(O)n(-c2ccc(Cl)cc2)n1)c1ccc(F)cc1 (stereo not drawn) [Example 73, 3-{[1-(4-Chloro-phenyl)-5-hydroxy-1H-pyrazole-3-carbonyl]-amino}-3-(4-fluoro-phenyl)-propionic acid] | 1000 to 30000 nM
COc1ccc(C(CC(=O)O)NC(=O)c2cc(O)n(-c3ccc(F)cc3)n2)c(Cl)c1 (stereo not drawn) [Example 345] | 100 to 1000 nM
O=C(O)C[C@H](NC(=O)c1cc(O)n(-c2ccc(Cl)cc2)n1)c1cccc(Cl)c1Cl [Example 277] | 100 to 1000 nM
CC(C)C(C)(O)COc1cc(C(=O)NC(CC(=O)O)Cc2ccccc2)nn1-c1ccccc1F (stereo not drawn) [Example 829, 3-{[1-(2-Fluoro-phenyl)-5-(2-hydroxy-2,3-dimethyl-butoxy)-1H-pyrazole-3-carbonyl]-amino}-4-phenyl-butyric acid] | 100 to 1000 nM
O=C(O)CC(NC(=O)c1cc(O)n(-c2ccc(F)cc2)n1)c1ccc(-c2ccccc2)cc1 (stereo not drawn) [Example 365] | 100 to 1000 nM
Cc1ccc(C)c(-n2nc(C(=O)NC(CC(=O)O)c3ccc(OC(F)(F)F)cc3)cc2O)c1 (stereo not drawn) [Example 31] | 1000 to 30000 nM
Cc1ccc(C)c(-n2nc(C(=O)NC(CC(=O)O)c3cc(F)cc(F)c3)cc2O)c1 (stereo not drawn) [Example 56] | 1000 to 30000 nM
Cc1ccc(C)c(-n2nc(C(=O)NC(CC(=O)O)C3CCCCC3)cc2O)c1 (stereo not drawn) [Example 37] | 1000 to 30000 nM
COc1ccc(C(CC(=O)O)NC(=O)c2cc(O)n(-c3cccc(F)c3)n2)c(OC)c1 (stereo not drawn) [Example 306] | 100 to 1000 nM
CC(C)[C@](C)(O)COc1cc(C(=O)N[C@@H](CC(=O)O)c2c(F)cccc2F)nn1-c1ccccc1F [Example 817, (S)-3-(2,6-Difluoro-phenyl)-3-{[1-(2-fluoro-phenyl)-5-((S)-2-hydroxy-2,3-dimethyl-butoxy)-1H-pyrazole-3-carbonyl]-amino}-propionic acid] | < 100 nM
CC(C)(C)[C@@](C)(O)COc1cc(C(=O)N[C@@H](CC(=O)O)c2ccccc2F)nn1-c1ccccc1F [Example 854, (S)-3-(2-Fluoro-phenyl)-3-{[1-(2-fluoro-phenyl)-5-((R)-2-hydroxy-2,3,3-trimethyl-butoxy)-1H-pyrazole-3-carbonyl]-amino}-propionic acid] | 100 to 1000 nM
O=C(O)C[C@H](NC(=O)c1cc(O)n(-c2cccc(F)c2)n1)c1cccc(F)c1 [Example 312] | 100 to 1000 nM
CC(C)(C)[C@H](O)COc1cc(C(=O)N[C@@H](CC(=O)O)c2cccc(Cl)c2Cl)nn1-c1ccccc1F [Example 800, (S)-3-(2,3-Dichloro-phenyl)-3-{[1-(2-fluoro-phenyl)-5-((S)-2-hydroxy-3,3-dimethyl-butoxy)-1H-pyrazole-3-carbonyl]-amino}-propionic acid] | < 100 nM
O=C(O)C[C@H](NC(=O)c1cc(O)n(-c2ccc(F)cc2F)n1)c1ccccc1F [Example 387] | 100 to 1000 nM
O=C(O)CC(NC(=O)c1cc(O)n(-c2ccccc2)n1)c1ccc(-c2ccc(F)cc2)cc1 (stereo not drawn) [Example 104] | 100 to 1000 nM
O=C(O)CC(NC(=O)c1cc(O)n(-c2ccccc2)n1)c1ccc(Cl)c(Cl)c1 (stereo not drawn) [Example 62] | 100 to 1000 nM

Other lines, results leading:

IC50 | Compound
100 to 1000 nM | O=C(O)CC(NC(=O)c1cc(O)n(-c2ccccc2)n1)C1CCCCC1 (stereo not drawn) [Example 18]
1000 to 30000 nM | O=C(O)CC(NC(=O)c1cc(O)n(-c2ccccc2F)n1)c1ccc(-n2ccnc2)cc1 (stereo not drawn) [Example 127]
1000 to 30000 nM | COc1ccccc1[C@@H](NC(=O)c1cc(O)n(-c2cccc(F)c2)n1)[C@@H](O)C(=O)O [Example 316]
100 to 1000 nM | CCc1ccc(C(CC(=O)O)NC(=O)c2cc(O)n(-c3cccc(F)c3)n2)cc1 (stereo not drawn) [Example 324]
1000 to 30000 nM | O=C(O)CC(NC(=O)c1cc(O)n(-c2ccccc2)n1)c1cccc(F)c1 (stereo not drawn) [Example 63]
100 to 1000 nM | COc1ccc([C@H](CC(=O)O)NC(=O)c2cc(O)n(-c3cccc(F)c3)n2)cn1 [Example 335]
100 to 1000 nM | COc1ccc(C(CC(=O)O)NC(=O)c2cc(O)n(-c3ccccc3)n2)c(F)c1 (stereo not drawn) [Example 92]

Same assay, conditions: recombinant human cathepsin A 833 ng/ml, Bodipy FL-labeled bradykinin 2 μM, pH 5.5; read-out: CATH-A IC50

Compound | IC50
Cc1c(F)cccc1C(CC(=O)O)NC(=O)c1cc(O)n(-c2cccc(Cl)c2)n1 (stereo not drawn) [Example 508, 3-{[1-(3-Chloro-phenyl)-5-hydroxy-1H-pyrazole-3-carbonyl]-amino}-3-(3-fluoro-2-methyl-phenyl)-propionic acid] | 137 nM
COc1ccc(C(F)(F)F)cc1C(CC(=O)O)NC(=O)c1cc(O)n(-c2ccccc2)n1 (stereo not drawn) [Example 548, 3-[(5-Hydroxy-1-phenyl-1H-pyrazole-3-carbonyl)-amino]-3-(2-methoxy-5-trifluoromethyl-phenyl)-propionic acid] | 7760 nM
CC(C)(C)[C@@H](O)COc1cc(C(=O)N[C@@H](CC(=O)O)c2ccc(Cl)cc2Cl)nn1-c1ccccc1F [Example 753, (S)-3-(2,4-Dichloro-phenyl)-3-{[1-(2-fluoro-phenyl)-5-((R)-2-hydroxy-3,3-dimethyl-butoxy)-1H-pyrazole-3-carbonyl]-amino}-propionic acid] | 345 nM

Second part, the molecule after the results:

IC50 | Compound
246 nM | O=C(O)CC(NC(=O)c1cc(O)n(-c2ccc(F)cc2)n1)c1cc(Cl)ccc1Cl (stereo not drawn) [Example 493, 3-(2,5-Dichloro-phenyl)-3-{[1-(4-fluoro-phenyl)-5-hydroxy-1H-pyrazole-3-carbonyl]-amino}-propionic acid]
233 nM | O=C(O)CC(NC(=O)c1cc(O)n(-c2ccc(F)cc2F)n1)c1cc(F)ccc1F (stereo not drawn) [Example 451, 3-(2,5-Difluoro-phenyl)-3-{[1-(2,4-difluoro-phenyl)-5-hydroxy-1H-pyrazole-3-carbonyl]-amino}-propionic acid]

Same assay, conditions: recombinant human cathepsin A; read-out: Activity (2): Cathepsin A inhibitory activity, IC50 class

Compound | IC50
Cc1c(F)cccc1C(CC(=O)O)NC(=O)c1cc(O)n(-c2cccc(Cl)c2)n1 (stereo not drawn) [Example 508, 3-{[1-(3-Chloro-phenyl)-5-hydroxy-1H-pyrazole-3-carbonyl]-amino}-3-(3-fluoro-2-methyl-phenyl)-propionic acid] | 100 to 1000 nM
COc1ccc([C@H](CC(=O)O)NC(=O)c2cc(O)n(-c3ccc(Cl)cc3)n2)cc1 [Example 423] | 1000 to 30000 nM
O=C(O)C[C@H](NC(=O)c1cc(O)n(-c2cccc(F)c2)n1)c1cccc(Cl)c1Cl [Example 428] | 100 to 1000 nM

Further lines, results first:

IC50 | Compound
100 to 1000 nM | O=C(O)CC(NC(=O)c1cc(O)n(-c2ccc(F)cc2)n1)c1cc(Cl)ccc1Cl (stereo not drawn) [Example 493, 3-(2,5-Dichloro-phenyl)-3-{[1-(4-fluoro-phenyl)-5-hydroxy-1H-pyrazole-3-carbonyl]-amino}-propionic acid]
100 to 1000 nM | O=C(O)CC(NC(=O)c1cc(O)n(-c2ccc(F)cc2F)n1)c1cc(F)ccc1F (stereo not drawn) [Example 451, 3-(2,5-Difluoro-phenyl)-3-{[1-(2,4-difluoro-phenyl)-5-hydroxy-1H-pyrazole-3-carbonyl]-amino}-propionic acid]
